Laboratory results taken from ChEMBL document CHEMBL1201861, “Genomics of Drug Sensitity in Cancer screening data, Wellcome Trust Sanger Institute”.
pIC50: −log10 of the molar value.

Tested on: MPP-89;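 further: growth inhibition of human MPP-89 cells, read out with a cell viability assay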
Assay: cells
Format: functional, cell-based, Homo sapiens
Conditions: Homo sapiens, MPP-89
Description: SANGER: Inhibition of human MPP-89 cell growth in a cell viability assay.

Structure (SMILES) | pIC50
C=C(c1ccc(C(=O)O)cc1)c1cc2c(cc1C)C(C)(C)CCC2(C)C [BEXAROTENE] | < 5.10

Tested on: ES4;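 further: growth inhibition of human ES4 cells, read out by a cell viability assay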
Assay: cells
Format: functional, cell-based, Homo sapiens
Conditions: Homo sapiens, ES4
Description: SANGER: Inhibition of human ES4 cell growth in a cell viability assay.

Structure (SMILES) | pIC50
C=C(c1ccc(C(=O)O)cc1)c1cc2c(cc1C)C(C)(C)CCC2(C)C [BEXAROTENE] | 5.42

Tested on: NB12;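 further: growth inhibition of human NB12 cells, read out by a cell viability assay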
Assay: cells
Format: functional, cell-based, Homo sapiens
Conditions: Homo sapiens, NB12
Description: SANGER: Inhibition of human NB12 cell growth in a cell viability assay.

Structure (SMILES) | pIC50
C=C(c1ccc(C(=O)O)cc1)c1cc2c(cc1C)C(C)(C)CCC2(C)C [BEXAROTENE] | < 5.10

Tested on: NCI-H1650;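 further: growth inhibition of human NCI-H1650 cells measured by a cell viability assay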
Assay: cells
Format: functional, cell-based, Homo sapiens
Conditions: Homo sapiens, NCI-H1650
Description: SANGER: Inhibition of human NCI-H1650 cell growth in a cell viability assay.

Structure (SMILES) | pIC50
C=C(c1ccc(C(=O)O)cc1)c1cc2c(cc1C)C(C)(C)CCC2(C)C [BEXAROTENE] | < 5.10

Tested on: A101D;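 further: growth inhibition of the cell line, measured with a viability assay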
Assay: cells
Format: functional, cell-based, Homo sapiens
Conditions: Homo sapiens, A101D
Description: SANGER: Inhibition of human A101D cell growth in a cell viability assay.

Structure (SMILES) | pIC50
C=C(c1ccc(C(=O)O)cc1)c1cc2c(cc1C)C(C)(C)CCC2(C)C [BEXAROTENE] | < 5.10

Tested on: ES6;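 further: growth inhibition of human ES6 cells, read out with a cell viability assay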
Assay: cells
Format: functional, cell-based, Homo sapiens
Conditions: Homo sapiens, ES6
Description: SANGER: Inhibition of human ES6 cell growth in a cell viability assay.

Structure (SMILES) | pIC50
C=C(c1ccc(C(=O)O)cc1)c1cc2c(cc1C)C(C)(C)CCC2(C)C [BEXAROTENE] | < 5.10

Tested on: NCI-H82;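 further: growth inhibition of NCI-H82 cells, measured with a cell viability readout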
Assay: cells
Format: functional, cell-based, Homo sapiens
Conditions: Homo sapiens, NCI-H82
Description: SANGER: Inhibition of human NCI-H82 cell growth in a cell viability assay.

Structure (SMILES) | pIC50
C=C(c1ccc(C(=O)O)cc1)c1cc2c(cc1C)C(C)(C)CCC2(C)C [BEXAROTENE] | < 5.10

Tested on: NCI-H747;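 further: growth inhibition of human NCI-H747 cells, read out by a cell viability assay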
Assay: cells
Format: functional, cell-based, Homo sapiens
Conditions: Homo sapiens, NCI-H747
Description: SANGER: Inhibition of human NCI-H747 cell growth in a cell viability assay.

Structure (SMILES) | pIC50
C=C(c1ccc(C(=O)O)cc1)c1cc2c(cc1C)C(C)(C)CCC2(C)C [BEXAROTENE] | < 5.10

Tested on: CGTH-W-1;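 further: growth inhibition of human CGTH-W-1 cells measured by cell viability assay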
Assay: cells
Format: functional, cell-based, Homo sapiens
Conditions: Homo sapiens, CGTH-W-1
Description: SANGER: Inhibition of human CGTH-W-1 cell growth in a cell viability assay.

Structure (SMILES) | pIC50
C=C(c1ccc(C(=O)O)cc1)c1cc2c(cc1C)C(C)(C)CCC2(C)C [BEXAROTENE] | < 5.10

Tested on: OVCAR-4;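 further: growth inhibition of human OVCAR-4 cells, measured with a cell viability assay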
Assay: cells
Format: functional, cell-based, Homo sapiens
Conditions: Homo sapiens, OVCAR-4
Description: SANGER: Inhibition of human OVCAR-4 cell growth in a cell viability assay.

Structure (SMILES) | pIC50
C=C(c1ccc(C(=O)O)cc1)c1cc2c(cc1C)C(C)(C)CCC2(C)C [BEXAROTENE] | < 5.10

Tested on: HC-1;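 further: growth inhibition of HC-1 cells measured by a cell viability assay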
Assay: cells
Format: functional, cell-based, Homo sapiens
Conditions: Homo sapiens, HC-1
Description: SANGER: Inhibition of human HC-1 cell growth in a cell viability assay.

Structure (SMILES) | pIC50
C=C(c1ccc(C(=O)O)cc1)c1cc2c(cc1C)C(C)(C)CCC2(C)C [BEXAROTENE] | < 5.10

Tested on: MSTO-211H
Assay: cells
Format: functional, cell-based, Homo sapiens
Conditions: Homo sapiens, MSTO-211H
Description: SANGER: Inhibition of human MSTO-211H cell growth in a cell viability assay.

Structure (SMILES) | pIC50
C=C(c1ccc(C(=O)O)cc1)c1cc2c(cc1C)C(C)(C)CCC2(C)C [BEXAROTENE] | < 5.10

Tested on: SF-268;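 further: growth inhibition of SF-268 cells determined with a cell viability assay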
Assay: cells
Format: functional, cell-based, Homo sapiens
Conditions: Homo sapiens, SF-268
Description: SANGER: Inhibition of human SF268 cell growth in a cell viability assay.

Structure (SMILES) | pIC50
C=C(c1ccc(C(=O)O)cc1)c1cc2c(cc1C)C(C)(C)CCC2(C)C [BEXAROTENE] | < 5.10

Tested on: OCUB-M;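 further: growth inhibition of the cancer cell line, read out through a cell viability assay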
Assay: cells
Format: functional, cell-based, Homo sapiens
Conditions: Homo sapiens, OCUB-M
Description: SANGER: Inhibition of human OCUB-M cell growth in a cell viability assay.

Structure (SMILES) | pIC50
C=C(c1ccc(C(=O)O)cc1)c1cc2c(cc1C)C(C)(C)CCC2(C)C [BEXAROTENE] | 5.99

Tested on: A3-KAW;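 further: growth inhibition of human A3-KAW cells, read out with a cell viability assay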
Assay: cells
Format: functional, cell-based, Homo sapiens
Conditions: Homo sapiens, A3-KAW
Description: SANGER: Inhibition of human A3-KAW cell growth in a cell viability assay.

Structure (SMILES) | pIC50
C=C(c1ccc(C(=O)O)cc1)c1cc2c(cc1C)C(C)(C)CCC2(C)C [BEXAROTENE] | < 5.10

Tested on: HAL-01;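 further: growth inhibition of human HAL-01 cells, read out with a cell viability assay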
Assay: cells
Format: functional, cell-based, Homo sapiens
Conditions: Homo sapiens, HAL-01
Description: SANGER: Inhibition of human HAL-01 cell growth in a cell viability assay.

Structure (SMILES) | pIC50
C=C(c1ccc(C(=O)O)cc1)c1cc2c(cc1C)C(C)(C)CCC2(C)C [BEXAROTENE] | < 5.10

Tested on: GR-ST
Assay: cells
Format: functional, cell-based, Homo sapiens
Conditions: Homo sapiens, GR-ST
Description: SANGER: Inhibition of human GR-ST cell growth in a cell viability assay.

Structure (SMILES) | pIC50
C=C(c1ccc(C(=O)O)cc1)c1cc2c(cc1C)C(C)(C)CCC2(C)C [BEXAROTENE] | < 5.10

Tested on: GCIY;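 further: growth inhibition of the human GCIY cell line, read out by a cell viability assay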
Assay: cells
Format: functional, cell-based, Homo sapiens
Conditions: Homo sapiens, GCIY
Description: SANGER: Inhibition of human GCIY cell growth in a cell viability assay.

Structure (SMILES) | pIC50
C=C(c1ccc(C(=O)O)cc1)c1cc2c(cc1C)C(C)(C)CCC2(C)C [BEXAROTENE] | < 5.10

Tested on: HCC2157;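 further: growth inhibition of the cancer cell line, read out as cell viability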
Assay: cells
Format: functional, cell-based, Homo sapiens
Conditions: Homo sapiens, HCC2157
Description: SANGER: Inhibition of human HCC2157 cell growth in a cell viability assay.

Structure (SMILES) | pIC50
C=C(c1ccc(C(=O)O)cc1)c1cc2c(cc1C)C(C)(C)CCC2(C)C [BEXAROTENE] | < 5.10

Tested on: L-363
Assay: cells
Format: functional, cell-based, Homo sapiens
Conditions: Homo sapiens, L-363
Description: SANGER: Inhibition of human L-363 cell growth in a cell viability assay.

Structure (SMILES) | pIC50
C=C(c1ccc(C(=O)O)cc1)c1cc2c(cc1C)C(C)(C)CCC2(C)C [BEXAROTENE] | < 5.10

Tested on: TGW;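 further: growth inhibition of human TGW cells, read out with a cell viability assay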
Assay: cells
Format: functional, cell-based, Homo sapiens
Conditions: Homo sapiens, TGW
Description: SANGER: Inhibition of human TGW cell growth in a cell viability assay.

Structure (SMILES) | pIC50
C=C(c1ccc(C(=O)O)cc1)c1cc2c(cc1C)C(C)(C)CCC2(C)C [BEXAROTENE] | < 5.10

Tested on: MFH-ino;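 further: growth inhibition of human MFH-ino cells, read out by a cell viability assay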
Assay: cells
Format: functional, cell-based, Homo sapiens
Conditions: Homo sapiens, MFH-ino
Description: SANGER: Inhibition of human MFH-ino cell growth in a cell viability assay.

Structure (SMILES) | pIC50
C=C(c1ccc(C(=O)O)cc1)c1cc2c(cc1C)C(C)(C)CCC2(C)C [BEXAROTENE] | 5.14

Tested on: NOMO-1;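 further: growth inhibition of human NOMO-1 cells measured by a cell viability assay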
Assay: cells
Format: functional, cell-based, Homo sapiens
Conditions: Homo sapiens, NOMO-1
Description: SANGER: Inhibition of human NOMO-1 cell growth in a cell viability assay.

Structure (SMILES) | pIC50
C=C(c1ccc(C(=O)O)cc1)c1cc2c(cc1C)C(C)(C)CCC2(C)C [BEXAROTENE] | < 5.10

Tested on: A704;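 further: growth inhibition of human A704 cells, read out with a cell viability assay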
Assay: cells
Format: functional, cell-based, Homo sapiens
Conditions: Homo sapiens, A704
Description: SANGER: Inhibition of human A704 cell growth in a cell viability assay.

Structure (SMILES) | pIC50
C=C(c1ccc(C(=O)O)cc1)c1cc2c(cc1C)C(C)(C)CCC2(C)C [BEXAROTENE] | < 5.10

Tested on: SK-MEL-1;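 further: growth inhibition of human SK-MEL-1 cells, read out by a cell viability assay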
Assay: cells
Format: functional, cell-based, Homo sapiens
Conditions: Homo sapiens, SK-MEL-1
Description: SANGER: Inhibition of human SK-MEL-1 cell growth in a cell viability assay.

Structure (SMILES) | pIC50
C=C(c1ccc(C(=O)O)cc1)c1cc2c(cc1C)C(C)(C)CCC2(C)C [BEXAROTENE] | < 5.10

Tested on: SK-N-FI;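 further: cell viability assay measuring growth inhibition of human SK-N-FI cells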
Assay: cells
Format: functional, cell-based, Homo sapiens
Conditions: Homo sapiens, SK-N-FI
Description: SANGER: Inhibition of human SK-N-FI cell growth in a cell viability assay.

Structure (SMILES) | pIC50
C=C(c1ccc(C(=O)O)cc1)c1cc2c(cc1C)C(C)(C)CCC2(C)C [BEXAROTENE] | < 5.10

Tested on: COLO-824
Assay: cells
Format: functional, cell-based, Homo sapiens
Conditions: Homo sapiens, COLO-824
Description: SANGER: Inhibition of human COLO-824 cell growth in a cell viability assay.

Structure (SMILES) | pIC50
C=C(c1ccc(C(=O)O)cc1)c1cc2c(cc1C)C(C)(C)CCC2(C)C [BEXAROTENE] | < 5.10

Tested on: NEC8;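 further: growth inhibition of human NEC8 cells, read out by a cell viability assay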
Assay: cells
Format: functional, cell-based, Homo sapiens
Conditions: Homo sapiens, NEC8
Description: SANGER: Inhibition of human NEC8 cell growth in a cell viability assay.

Structure (SMILES) | pIC50
C=C(c1ccc(C(=O)O)cc1)c1cc2c(cc1C)C(C)(C)CCC2(C)C [BEXAROTENE] | < 5.10

Tested on: SW 962;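 further: growth inhibition of human SW962 cells, read out by a cell viability assay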
Assay: cells
Format: functional, cell-based, Homo sapiens
Conditions: Homo sapiens, SW 962
Description: SANGER: Inhibition of human SW962 cell growth in a cell viability assay.

Structure (SMILES) | pIC50
C=C(c1ccc(C(=O)O)cc1)c1cc2c(cc1C)C(C)(C)CCC2(C)C [BEXAROTENE] | < 5.10

Tested on: IA-LM;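 further: cell viability assay measuring growth inhibition of human IA-LM cells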
Assay: cells
Format: functional, cell-based, Homo sapiens
Conditions: Homo sapiens, IA-LM
Description: SANGER: Inhibition of human IA-LM cell growth in a cell viability assay.

Structure (SMILES) | pIC50
C=C(c1ccc(C(=O)O)cc1)c1cc2c(cc1C)C(C)(C)CCC2(C)C [BEXAROTENE] | 5.13

Tested on: BB65-RCC;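 further: growth inhibition of the cell line, measured with a cell viability assay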
Assay: cells
Format: functional, cell-based, Homo sapiens
Conditions: Homo sapiens, BB65-RCC
Description: SANGER: Inhibition of human BB65-RCC cell growth in a cell viability assay.

Structure (SMILES) | pIC50
C=C(c1ccc(C(=O)O)cc1)c1cc2c(cc1C)C(C)(C)CCC2(C)C [BEXAROTENE] | < 5.10

Tested on: NCI-H720;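 further: growth inhibition of human NCI-H720 cells determined by a cell viability assay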
Assay: cells
Format: functional, cell-based, Homo sapiens
Conditions: Homo sapiens, NCI-H720
Description: SANGER: Inhibition of human NCI-H720 cell growth in a cell viability assay.

Structure (SMILES) | pIC50
C=C(c1ccc(C(=O)O)cc1)c1cc2c(cc1C)C(C)(C)CCC2(C)C [BEXAROTENE] | < 5.10

Tested on: MOLT-16;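 further: growth inhibition of human MOLT-16 cells, read out with a cell viability assay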
Assay: cells
Format: functional, cell-based, Homo sapiens
Conditions: Homo sapiens, MOLT-16
Description: SANGER: Inhibition of human MOLT-16 cell growth in a cell viability assay.

Structure (SMILES) | pIC50
C=C(c1ccc(C(=O)O)cc1)c1cc2c(cc1C)C(C)(C)CCC2(C)C [BEXAROTENE] | < 5.10

Tested on: GOTO;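 further: growth inhibition of GOTO cells, read out by a cell viability assay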
Assay: cells
Format: functional, cell-based, Homo sapiens
Conditions: Homo sapiens, GOTO
Description: SANGER: Inhibition of human GOTO cell growth in a cell viability assay.

Structure (SMILES) | pIC50
C=C(c1ccc(C(=O)O)cc1)c1cc2c(cc1C)C(C)(C)CCC2(C)C [BEXAROTENE] | < 5.10

Tested on: BE-13;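 further: growth inhibition of human BE-13 cells, measured with a cell viability assay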
Assay: cells
Format: functional, cell-based, Homo sapiens
Conditions: Homo sapiens, BE-13
Description: SANGER: Inhibition of human BE-13 cell growth in a cell viability assay.

Structure (SMILES) | pIC50
C=C(c1ccc(C(=O)O)cc1)c1cc2c(cc1C)C(C)(C)CCC2(C)C [BEXAROTENE] | < 5.10

Tested on: D283 Med
Assay: cells
Format: functional, cell-based, Homo sapiens
Conditions: Homo sapiens, D283 Med
Description: SANGER: Inhibition of human D-283MED cell growth in a cell viability assay.

Structure (SMILES) | pIC50
C=C(c1ccc(C(=O)O)cc1)c1cc2c(cc1C)C(C)(C)CCC2(C)C [BEXAROTENE] | < 5.10

Tested on: J-RT3-T3-5;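 further: cell viability assay measuring growth inhibition of human J-RT3-T3-5 cells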
Assay: cells
Format: functional, cell-based, Homo sapiens
Conditions: Homo sapiens, J-RT3-T3-5
Description: SANGER: Inhibition of human J-RT3-T3-5 cell growth in a cell viability assay.

Structure (SMILES) | pIC50
C=C(c1ccc(C(=O)O)cc1)c1cc2c(cc1C)C(C)(C)CCC2(C)C [BEXAROTENE] | < 5.10

Tested on: L-428
Assay: cells
Format: functional, cell-based, Homo sapiens
Conditions: Homo sapiens, L-428
Description: SANGER: Inhibition of human L-428 cell growth in a cell viability assay.

Structure (SMILES) | pIC50
C=C(c1ccc(C(=O)O)cc1)c1cc2c(cc1C)C(C)(C)CCC2(C)C [BEXAROTENE] | < 5.10

Tested on: LS-1034
Assay: cells
Format: functional, cell-based, Homo sapiens
Conditions: Homo sapiens, LS-1034
Description: SANGER: Inhibition of human LS-1034 cell growth in a cell viability assay.

Structure (SMILES) | pIC50
C=C(c1ccc(C(=O)O)cc1)c1cc2c(cc1C)C(C)(C)CCC2(C)C [BEXAROTENE] | < 5.10

Tested on: 8-MG-BA;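 further: growth inhibition of 8-MG-BA cells, read out with a cell viability assay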
Assay: cells
Format: functional, cell-based, Homo sapiens
Conditions: Homo sapiens, 8-MG-BA
Description: SANGER: Inhibition of human 8-MG-BA cell growth in a cell viability assay.

Structure (SMILES) | pIC50
C=C(c1ccc(C(=O)O)cc1)c1cc2c(cc1C)C(C)(C)CCC2(C)C [BEXAROTENE] | < 5.10

Tested on: IST-MEL1;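 further: growth inhibition of the cell line, read out with a cell viability assay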
Assay: cells
Format: functional, cell-based, Homo sapiens
Conditions: Homo sapiens, IST-MEL1
Description: SANGER: Inhibition of human IST-MEL1 cell growth in a cell viability assay.

Structure (SMILES) | pIC50
C=C(c1ccc(C(=O)O)cc1)c1cc2c(cc1C)C(C)(C)CCC2(C)C [BEXAROTENE] | < 5.10

Tested on: NCI-H1299;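 further: growth inhibition of human NCI-H1299 cells, read out by a cell viability assay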
Assay: cells
Format: functional, cell-based, Homo sapiens
Conditions: Homo sapiens, NCI-H1299
Description: SANGER: Inhibition of human NCI-H1299 cell growth in a cell viability assay.

Structure (SMILES) | pIC50
C=C(c1ccc(C(=O)O)cc1)c1cc2c(cc1C)C(C)(C)CCC2(C)C [BEXAROTENE] | < 5.10

Tested on: BB30-HNC;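 further: growth inhibition of the cultured cell line, read out by a cell viability assay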
Assay: cells
Format: functional, cell-based, Homo sapiens
Conditions: Homo sapiens, BB30-HNC
Description: SANGER: Inhibition of human BB30-HNC cell growth in a cell viability assay.

Structure (SMILES) | pIC50
C=C(c1ccc(C(=O)O)cc1)c1cc2c(cc1C)C(C)(C)CCC2(C)C [BEXAROTENE] | < 5.10

Tested on: NCI-H1395;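 further: cell viability assay read-out quantifying reduced proliferation of human NCI-H1395 cells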
Assay: cells
Format: functional, cell-based, Homo sapiens
Conditions: Homo sapiens, NCI-H1395
Description: SANGER: Inhibition of human NCI-H1395 cell growth in a cell viability assay.

Structure (SMILES) | pIC50
C=C(c1ccc(C(=O)O)cc1)c1cc2c(cc1C)C(C)(C)CCC2(C)C [BEXAROTENE] | < 5.10

Tested on: TE-11;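 further: growth inhibition of human TE-11 cells, read out by a cell viability assay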
Assay: cells
Format: functional, cell-based, Homo sapiens
Conditions: Homo sapiens, TE-11
Description: SANGER: Inhibition of human TE-11 cell growth in a cell viability assay.

Structure (SMILES) | pIC50
C=C(c1ccc(C(=O)O)cc1)c1cc2c(cc1C)C(C)(C)CCC2(C)C [BEXAROTENE] | < 5.10

Tested on: EW-24;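 further: human EW-24 cancer cell line, growth inhibition read out via a cell viability assay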
Assay: cells
Format: functional, cell-based, Homo sapiens
Conditions: Homo sapiens, EW-24
Description: SANGER: Inhibition of human EW-24 cell growth in a cell viability assay.

Structure (SMILES) | pIC50
C=C(c1ccc(C(=O)O)cc1)c1cc2c(cc1C)C(C)(C)CCC2(C)C [BEXAROTENE] | < 5.10

Tested on: NB6;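 further: growth inhibition of NB6 cells, read out by a cell viability assay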
Assay: cells
Format: functional, cell-based, Homo sapiens
Conditions: Homo sapiens, NB6
Description: SANGER: Inhibition of human NB6 cell growth in a cell viability assay.

Structure (SMILES) | pIC50
C=C(c1ccc(C(=O)O)cc1)c1cc2c(cc1C)C(C)(C)CCC2(C)C [BEXAROTENE] | < 5.10

Tested on: TE-5;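 further: inhibition of cell growth, read out by a cell viability assay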
Assay: cells
Format: functional, cell-based, Homo sapiens
Conditions: Homo sapiens, TE-5
Description: SANGER: Inhibition of human TE-5 cell growth in a cell viability assay.

Structure (SMILES) | pIC50
C=C(c1ccc(C(=O)O)cc1)c1cc2c(cc1C)C(C)(C)CCC2(C)C [BEXAROTENE] | < 5.10
